Data: publication PMC10882719 (Frontiers in Neuroscience, 2024)
Where two headings read alike, the source gives them in different places.

Legend:
Format in all cases: cell-based
168 GPCRs [1] = molecular target: T1, 168 GPCRs (Homo sapiens, UniProt O95838); conditions: GLP2R
T1 construct: host or cells: PathHunter cell lines
T1 sequence (O95838 1-553): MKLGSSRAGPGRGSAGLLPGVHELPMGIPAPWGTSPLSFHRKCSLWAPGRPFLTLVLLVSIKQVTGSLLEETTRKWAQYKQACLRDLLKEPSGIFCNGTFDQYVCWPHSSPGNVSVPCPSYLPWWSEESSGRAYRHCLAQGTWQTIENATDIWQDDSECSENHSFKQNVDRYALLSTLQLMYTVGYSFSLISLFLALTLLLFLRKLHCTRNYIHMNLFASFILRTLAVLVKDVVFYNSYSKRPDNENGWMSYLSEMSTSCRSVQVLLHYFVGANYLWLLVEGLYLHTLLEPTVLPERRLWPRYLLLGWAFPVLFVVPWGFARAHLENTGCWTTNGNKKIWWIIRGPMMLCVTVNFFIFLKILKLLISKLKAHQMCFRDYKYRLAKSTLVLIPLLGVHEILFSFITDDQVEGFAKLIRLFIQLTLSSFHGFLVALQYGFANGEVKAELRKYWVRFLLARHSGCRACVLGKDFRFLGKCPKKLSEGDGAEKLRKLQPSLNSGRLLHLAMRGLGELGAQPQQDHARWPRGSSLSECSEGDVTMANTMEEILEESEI

168 GPCRs [2] = molecular target: T2, 168 GPCRs (Homo sapiens, UniProt P21917)
T2 construct: host or cells: PathHunter cell lines
T2 sequence (P21917 1-419): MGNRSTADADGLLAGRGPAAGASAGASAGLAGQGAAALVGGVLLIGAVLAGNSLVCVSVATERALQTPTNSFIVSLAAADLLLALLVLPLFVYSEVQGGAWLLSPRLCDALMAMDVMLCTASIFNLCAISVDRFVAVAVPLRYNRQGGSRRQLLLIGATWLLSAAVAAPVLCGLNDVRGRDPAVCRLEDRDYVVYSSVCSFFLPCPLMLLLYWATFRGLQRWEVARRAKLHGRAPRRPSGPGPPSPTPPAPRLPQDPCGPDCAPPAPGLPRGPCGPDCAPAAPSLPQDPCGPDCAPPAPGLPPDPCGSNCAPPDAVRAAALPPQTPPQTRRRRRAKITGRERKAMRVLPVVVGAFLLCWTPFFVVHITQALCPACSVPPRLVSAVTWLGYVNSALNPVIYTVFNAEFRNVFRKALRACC

168 GPCRs [3] = molecular target: T3, 168 GPCRs (Homo sapiens, UniProt P24530); conditions: EDNRB
T3 construct: host or cells: PathHunter cell lines
T3 sequence (P24530 27-442): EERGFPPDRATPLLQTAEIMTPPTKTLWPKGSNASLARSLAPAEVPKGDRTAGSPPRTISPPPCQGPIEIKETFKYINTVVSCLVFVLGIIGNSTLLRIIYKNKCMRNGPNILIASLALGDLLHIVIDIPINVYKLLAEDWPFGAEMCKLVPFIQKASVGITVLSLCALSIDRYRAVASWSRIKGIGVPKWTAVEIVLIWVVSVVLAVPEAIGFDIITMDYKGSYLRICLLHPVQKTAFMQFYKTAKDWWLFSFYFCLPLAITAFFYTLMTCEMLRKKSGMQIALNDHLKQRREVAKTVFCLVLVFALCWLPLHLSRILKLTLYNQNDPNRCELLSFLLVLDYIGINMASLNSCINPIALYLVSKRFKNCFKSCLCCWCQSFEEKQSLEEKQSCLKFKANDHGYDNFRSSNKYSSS

168 GPCRs [4] = molecular target: T4, 168 GPCRs (Homo sapiens, UniProt P25106)
T4 construct: host or cells: PathHunter cell lines

168 GPCRs [5] = molecular target: T5, 168 GPCRs (Homo sapiens, UniProt P30874); conditions: SSTR2
T5 construct: host or cells: PathHunter cell lines

168 GPCRs [6] = molecular target: T6, 168 GPCRs (Homo sapiens, UniProt P33032); conditions: MC5R
T6 construct: host or cells: PathHunter cell lines

168 GPCRs [7] = molecular target: T7, 168 GPCRs (Homo sapiens, UniProt P48146)
T7 construct: host or cells: PathHunter cell lines

168 GPCRs [8] = molecular target: T8, 168 GPCRs (Homo sapiens, UniProt Q9P296)
T8 construct: host or cells: PathHunter cell lines
T8 sequence (Q9P296 whole entry): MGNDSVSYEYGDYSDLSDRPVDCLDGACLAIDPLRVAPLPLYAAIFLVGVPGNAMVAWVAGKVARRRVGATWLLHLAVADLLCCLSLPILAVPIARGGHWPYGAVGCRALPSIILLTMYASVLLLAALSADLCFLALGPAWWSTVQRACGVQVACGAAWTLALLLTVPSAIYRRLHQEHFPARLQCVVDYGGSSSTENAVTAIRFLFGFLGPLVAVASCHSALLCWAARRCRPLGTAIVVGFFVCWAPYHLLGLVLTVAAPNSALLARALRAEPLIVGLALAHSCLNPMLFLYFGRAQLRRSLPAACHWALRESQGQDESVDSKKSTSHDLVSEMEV

T5 sequence (P30874 whole entry): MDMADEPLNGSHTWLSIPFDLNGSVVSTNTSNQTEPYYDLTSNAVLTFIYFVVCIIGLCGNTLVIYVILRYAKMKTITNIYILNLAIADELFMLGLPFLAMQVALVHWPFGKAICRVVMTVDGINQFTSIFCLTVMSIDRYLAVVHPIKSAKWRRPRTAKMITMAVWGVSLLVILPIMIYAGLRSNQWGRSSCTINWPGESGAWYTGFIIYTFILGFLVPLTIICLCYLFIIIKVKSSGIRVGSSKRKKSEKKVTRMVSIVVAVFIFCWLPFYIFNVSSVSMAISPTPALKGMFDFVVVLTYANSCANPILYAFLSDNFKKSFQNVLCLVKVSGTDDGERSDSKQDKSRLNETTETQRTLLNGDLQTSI
T4 sequence (P25106 whole entry): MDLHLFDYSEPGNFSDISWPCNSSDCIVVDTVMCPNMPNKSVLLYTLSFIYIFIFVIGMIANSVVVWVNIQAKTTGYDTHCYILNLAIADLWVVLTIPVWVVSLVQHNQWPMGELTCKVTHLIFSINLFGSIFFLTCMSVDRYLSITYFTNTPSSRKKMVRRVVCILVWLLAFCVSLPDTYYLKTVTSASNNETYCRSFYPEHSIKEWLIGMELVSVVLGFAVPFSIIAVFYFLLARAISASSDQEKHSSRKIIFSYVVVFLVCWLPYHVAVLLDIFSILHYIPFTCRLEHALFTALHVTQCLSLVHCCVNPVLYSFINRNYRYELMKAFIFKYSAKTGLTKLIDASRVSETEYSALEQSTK
T7 sequence (P48146 whole entry): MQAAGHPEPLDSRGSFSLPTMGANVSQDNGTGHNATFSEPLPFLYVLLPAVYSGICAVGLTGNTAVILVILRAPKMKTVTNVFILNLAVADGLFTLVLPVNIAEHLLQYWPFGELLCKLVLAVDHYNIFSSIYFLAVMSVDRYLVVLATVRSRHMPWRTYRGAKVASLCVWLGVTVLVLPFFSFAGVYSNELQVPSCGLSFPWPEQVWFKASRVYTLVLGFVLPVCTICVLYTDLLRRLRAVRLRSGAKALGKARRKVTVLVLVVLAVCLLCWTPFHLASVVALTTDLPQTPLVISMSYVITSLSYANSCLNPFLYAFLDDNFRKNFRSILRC
T6 sequence (P33032 whole entry): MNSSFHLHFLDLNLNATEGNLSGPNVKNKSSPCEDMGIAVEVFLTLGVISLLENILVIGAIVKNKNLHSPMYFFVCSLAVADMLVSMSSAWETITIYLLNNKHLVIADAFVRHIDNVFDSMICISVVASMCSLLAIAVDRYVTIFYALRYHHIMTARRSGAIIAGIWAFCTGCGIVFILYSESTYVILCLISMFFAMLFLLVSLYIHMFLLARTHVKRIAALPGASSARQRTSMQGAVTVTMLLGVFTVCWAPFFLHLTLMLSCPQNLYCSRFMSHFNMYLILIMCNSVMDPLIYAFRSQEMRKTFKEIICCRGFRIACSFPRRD

Row | SMILES | % Agonist Activity (168 GPCRs [1]; 1 uM) [%] | % Antagonist Activity (168 GPCRs [1]; 1 uM) [%] | % Agonist Activity (168 GPCRs [1]; 10 uM) [%] | % Antagonist Activity (168 GPCRs [1]; 10 uM) [%] | % Agonist Activity (168 GPCRs [2]; DRD4, 1 uM) [%] | % Antagonist Activity (168 GPCRs [2]; DRD4, 1 uM) [%] | % Agonist Activity (168 GPCRs [2]; DRD4, 10 uM) [%] | % Antagonist Activity (168 GPCRs [2]; DRD4, 10 uM) [%] | % Agonist Activity (168 GPCRs [3]; 1 uM) [%] | % Antagonist Activity (168 GPCRs [3]; 1 uM) [%] | % Agonist Activity (168 GPCRs [3]; 10 uM) [%] | % Antagonist Activity (168 GPCRs [3]; 10 uM) [%] | % Agonist Activity (168 GPCRs [4]; CXCR7, 1 uM) [%] | % Antagonist Activity (168 GPCRs [4]; CXCR7, 1 uM) [%] | % Agonist Activity (168 GPCRs [4]; CXCR7, 10 uM) [%] | % Antagonist Activity (168 GPCRs [4]; CXCR7, 10 uM) [%] | % Agonist Activity (168 GPCRs [5]; Conc 1 uM) [%] | % Antagonist Activity (168 GPCRs [5]; Conc 1 uM) [%] | % Agonist Activity (168 GPCRs [5]; Conc 10 uM) [%] | % Antagonist Activity (168 GPCRs [5]; Conc 10 uM) [%] | also measured
1 | CNC(C)C(=O)c1ccc2c(c1)OCO2 (stereo not shown) [methylone] | -1.5 | 5.4 | -1 | 5.4 | -8 | 8.4 | -9.4 | 12.2 | 0.7 | 17.5 | -0.1 | 10.9 | -1.3 | 14.1 | -0.8 | 7.3 | 0 | -0.4 | 0.7 | -4.2 | % Agonist Activity (168 GPCRs [6]; 1 uM): -7.9%; % Antagonist Activity (168 GPCRs [6]; 1 uM): 1.7%; % Agonist Activity (168 GPCRs [6]; 10 uM): -8.9%; % Antagonist Activity (168 GPCRs [6]; 10 uM): -6.3%; % Agonist Activity (168 GPCRs [7]; NPBWR2, 1 uM): -0.3%; % Antagonist Activity (168 GPCRs [7]; NPBWR2, 1 uM): -14.1%; % Agonist Activity (168 GPCRs [7]; NPBWR2, Conc 10 uM): 1.3%; % Antagonist Activity (168 GPCRs [7]; NPBWR2, Conc 10 uM): -14%; % Agonist Activity (168 GPCRs [8]; C5L2, 1 uM): 8.4%; % Antagonist Activity (168 GPCRs [8]; C5L2, 1 uM): 10%; % Agonist Activity (168 GPCRs [8]; C5L2, 10 uM): 12.9%; % Antagonist Activity (168 GPCRs [8]; C5L2, 10 uM): 1.4%
2 | CNC(C)Cc1ccc2c(c1)OCO2 (stereo not shown) [MDMA, 3,4-Methylenedioxy methamphetamine, reference compound] | 0 | 3.4 | -5 | 1.1 | -0.7 | 14.9 | -0.1 | 7.7 | 0 | 2.5 | -0.3 | 6.4 | -1.3 | 5.3 | 0.5 | 8 | 0 | 2.7 | 0.2 | 9.1 | % Agonist Activity (168 GPCRs [6]; 1 uM): 2.5%; % Antagonist Activity (168 GPCRs [6]; 1 uM): -0.9%; % Agonist Activity (168 GPCRs [6]; 10 uM): 1%; % Antagonist Activity (168 GPCRs [6]; 10 uM): 7.1%; % Agonist Activity (168 GPCRs [7]; NPBWR2, 1 uM): -2.6%; % Antagonist Activity (168 GPCRs [7]; NPBWR2, 1 uM): -2.1%; % Agonist Activity (168 GPCRs [7]; NPBWR2, Conc 10 uM): -2.3%; % Antagonist Activity (168 GPCRs [7]; NPBWR2, Conc 10 uM): 2.4%; % Agonist Activity (168 GPCRs [8]; C5L2, 1 uM): 7.7%; % Antagonist Activity (168 GPCRs [8]; C5L2, 1 uM): -5.5%; % Agonist Activity (168 GPCRs [8]; C5L2, 10 uM): 3.3%; % Antagonist Activity (168 GPCRs [8]; C5L2, 10 uM): -4%
